# From US10106516B2, “PDE10 inhibitors and related compositions and methods” (Omeros Corporation, priority 2010, dated 2018)
# Molecular target: T1, PDE10 (Homo sapiens, UniProt Q9Y233)
# T1 construct: made in house; host or cells: Sf9 insect cells (baculovirus)
# Assay: PDE10 biochemical assay (two-step Thompson and Appleman method or SPA)
# Settings: PDE10 inhibition
# Method: In short, cAMP is spiked with (^3H)cAMP and incubated with PDE10 and various concentrations of a compound of structure (I). After the appropriate incubation time, the reaction is terminated by heating. The mixture is then subjected to treatment with snake venom phosphatase. The phosphatase hydrolyzes any AMP in the mixture, but leaves unreacted cAMP intact. Thus, by separating cAMP from the mixture and determining its concentration (by radiography), the percent of inhibition can be determined. IC50 values can be calculated by performing the experiment at several concentrations using standard graphical means. A detailed description of the actual technique used for IC50 assays as set forth in following Examples.
# The phosphodiesterase (PDE) assay was performed using recombinant human PDE 1A3, 2A3, 3 catalytic region, 4 catalytic region, 5 catalytic region, 7A, 8A, 9A2, 10A1 and 11A1 enzymes expressed in a baculoviral system using Sf9 cells. PDE activity was measured using a modification of the two-step method of Thompson and Appleman described above which was adapted for 96 well plate format. […] The final assay volume was 110 μl with assay buffer (10 mM MgCl2; 40 mM Tris.HCl; pH 7.4). Reactions were initiated with enzyme and incubated with (^3H)-substrate and substance for 20 minutes at 30° C. The reaction was terminated by denaturing the enzyme (heating the reaction to 70° C. for 2 minutes). The reaction was then cooled at 4° C. for 10 minutes before the addition of snake venom (Crotalus atrox, 0.2 mg/ml) for 10 minutes at 30° C., thus allowing non-specific hydrolysis of the tritiated substrate. Separation of the remaining unhydrolysed cyclic nucleotide was achieved by a batch binding of the mixture to activated Dowex (200 μl) anion exchange resin. The anion exchange resin bound the charged nucleotides, leaving only hydrolysed (^3H) substrate in the soluble fraction. The soluble fraction (50 μl) was then added to microscint-20 (200 μl) and counted on a Top Count Plate reader. Radioactivity units were plotted against inhibitor concentration and IC50 values obtained using Graph Pad Prism software.
# Alternatively, phosphodiesterase activity was measured by scintillation proximity assay (SPA) with [^3H]-cGMP as substrate. Purified PDE10 was diluted and stored in 25 mM Tris-Cl (pH 8.0)/100 mM NaCl/0.05% Tween 20/50% glycerol/3 mM DTT. Assays contained (final concentrations): 50 mM Tris-Cl (pH 7.5)/8.3 mM MgCl2/1.7 mM EGTA/0.5 mg/ml BSA/5% DMSO and 2 ng PDE10 in a final volume of 0.1 mL. Inhibition was evaluated at 8 concentrations in duplicate. Reactions were initiated by addition of enzyme and were terminated after 20 minutes at 30° C. by the addition of 50 μl of SPA beads containing Zn^++. The mixture was shaken, allowed to settle for 3 hours, and counted in a Wallac plate counter. Results (net cpm) were fitted to a four parameter logistic model using Excel Solver®.
# T1 sequence (Q9Y233 1-779 isoform Q9Y233-1): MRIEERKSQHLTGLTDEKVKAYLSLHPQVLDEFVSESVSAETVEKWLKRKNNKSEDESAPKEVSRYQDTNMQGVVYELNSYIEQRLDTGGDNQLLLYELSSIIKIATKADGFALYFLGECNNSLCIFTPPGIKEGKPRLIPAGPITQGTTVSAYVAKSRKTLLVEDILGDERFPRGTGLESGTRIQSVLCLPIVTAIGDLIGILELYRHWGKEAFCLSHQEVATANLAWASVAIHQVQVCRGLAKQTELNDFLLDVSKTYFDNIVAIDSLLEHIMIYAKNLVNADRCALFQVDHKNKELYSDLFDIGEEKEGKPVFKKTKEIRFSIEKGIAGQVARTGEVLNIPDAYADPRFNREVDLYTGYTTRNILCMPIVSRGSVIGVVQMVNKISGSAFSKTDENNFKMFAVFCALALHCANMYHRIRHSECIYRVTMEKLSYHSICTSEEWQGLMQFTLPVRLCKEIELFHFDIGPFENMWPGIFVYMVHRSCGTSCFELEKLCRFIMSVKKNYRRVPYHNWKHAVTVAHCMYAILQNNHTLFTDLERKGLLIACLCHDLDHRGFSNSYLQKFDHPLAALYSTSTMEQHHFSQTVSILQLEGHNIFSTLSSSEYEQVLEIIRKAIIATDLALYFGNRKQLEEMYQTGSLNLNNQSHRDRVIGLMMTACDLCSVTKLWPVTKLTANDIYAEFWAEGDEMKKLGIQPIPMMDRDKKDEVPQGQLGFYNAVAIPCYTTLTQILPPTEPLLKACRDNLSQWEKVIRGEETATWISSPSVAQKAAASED
row,SMILES,IC50
1,"COc1cc(-c2csc(C(=O)C(OC)c3ccc(-n4cccn4)cc3)n2)cc(OC)c1Br (centres unmarked) [Compound 3-1, 2-(4-(1H-Pyrazol-1-Yl)Phenyl)-1-(4-(4-Bromo-3,5-Dimethoxyphenyl)Thiazol-2-Yl)-2-Methoxyethanone]",≤ 1000 nM
2,"COc1cc(-c2cn(C)c(C(=O)C(OC)c3ccc(N4CCOCC4)cc3)n2)cc(OC)c1Br (centres unmarked) [Compound 4-1, 1-(4-(4-Bromo-3,5-Dimethoxyphenyl)-1-Methyl-1H-Imidazol-2-Yl)-2-Methoxy-2-(4-Morpholinophenyl)Ethanone]",≤ 1000 nM
3,"COc1cc(-c2coc(C(=O)C(OC)c3ccc(-n4cccn4)cc3)n2)cc(OC)c1Br (centres unmarked) [Compound 5-1, 2-(4-(1H-Pyrazol-1-Yl)Phenyl)-1-(4-(4-Bromo-3,5-Dimethoxyphenyl)Oxazol-2-Yl)-2-Methoxyethanone]",≤ 1000 nM
4,"COc1cc(-c2coc(C(=O)C(OC)c3ccc(N4CCCCC4)cc3)n2)cc(OC)c1Br (centres unmarked) [Compound 6-1, 1-(4-(4-Bromo-3,5-Dimethoxyphenyl)Oxazol-2-Yl)-2-Methoxy-2-(4-(Piperidin-1-Yl)Phenyl)Ethanone]",≤ 1000 nM
5,"COc1cc(-c2coc(C(=O)C(OC)c3ccc(N4CCCC4)cc3)n2)cc(OC)c1Br (centres unmarked) [Compound 7-1, 1-(4-(4-Bromo-3,5-Dimethoxyphenyl)Oxazol-2-Yl)-2-Methoxy-2-(4-(Pyrrolidin-1-Yl)Phenyl)Ethanone]",≤ 1000 nM
6,"COc1cc(-c2coc(C(=O)C(OC)c3ccc(OC(C)C)cc3)n2)cc(OC)c1Br (centres unmarked) [Compound 8-1, 1-(4-(4-Bromo-3,5-Dimethoxyphenyl)Oxazol-2-Yl)-2-(4-Isopropoxyphenyl)-2-Methoxyethanone]",≤ 1000 nM
7,"COc1cc(-c2coc(C(=O)C(OC)c3cccc4ncccc34)n2)cc(OC)c1Br (centres unmarked) [Compound 9-1, 1-(4-(4-Bromo-3,5-Dimethoxyphenyl)Oxazol-2-Yl)-2-Methoxy-2-(Quinolin-5-Yl)Ethanone]",≤ 1000 nM
8,"COc1cc(-c2coc(C(=O)C(OC)c3cnc4ccccc4c3)n2)cc(OC)c1Br (centres unmarked) [Compound 10-1, 1-(4-(4-Bromo-3,5-Dimethoxyphenyl)Oxazol-2-Yl)-2-Methoxy-2-(Quinolin-3-Yl)Ethanone]",≤ 1000 nM
9,"COc1cc(-c2ccc(C(=O)C(OC)c3ccc(N4CCOCC4)cc3)o2)cc(OC)c1Br (centres unmarked) [Compound 12-1, 1-(5-(4-Bromo-3,5-Dimethoxyphenyl)Furan-2-Yl)-2-Methoxy-2-(4-Morpholinophenyl)Ethanone]",≤ 1000 nM
10,"COc1cc(-c2ccc(C(=O)C(OC)c3ccc(-c4nnc(C)o4)cc3)o2)cc(OC)c1Br (centres unmarked) [Compound 13-1, 1-(5-(4-Bromo-3,5-Dimethoxyphenyl)Furan-2-Yl)-2-Methoxy-2-(4-(5-Methyl-1,3,4-Oxadiazol-2-Yl)Phenyl)Ethanone]",≤ 1000 nM
11,"COc1cc(-c2ccc(C(=O)C(OC)c3ccc(-n4cccn4)cc3)o2)cc(OC)c1Br (centres unmarked) [Compound 14-1, 2-(4-(1H-Pyrazol-1-Yl)Phenyl)-1-(5-(4-Bromo-3,5-Dimethoxyphenyl)Furan-2-Yl)-2-Methoxyethanone]",≤ 1000 nM
12,"COc1cc(-c2ccc(C(=O)C(OC)c3ccc(-c4cn[nH]c4)cc3)o2)cc(OC)c1Br (centres unmarked) [Compound 15-1, 2-(4-(1H-Pyrazol-4-Yl)Phenyl)-1-(5-(4-Bromo-3,5-Dimethoxyphenyl)Furan-2-Yl)-2-Methoxyethanone]",≤ 1000 nM
13,"COc1cc(-c2ccc(C(=O)C(OC)c3ccc(-c4ccc(C)o4)cc3)o2)cc(OC)c1Br (centres unmarked) [Compound 16-1, 1-(5-(4-Bromo-3,5-Dimethoxyphenyl)Furan-2-Yl)-2-Methoxy-2-(4-(5-Methylfuran-2-Yl)Phenyl)Ethanone]",≤ 1000 nM
14,"COc1cc(-c2ccc(C(=O)C(OC)c3ccc(-c4nnc(C)o4)cc3)o2)cc(C#N)c1OC (centres unmarked) [Compound 17-1, 2,3-Dimethoxy-5-(5-(2-Methoxy-2-(4-(5-Methyl-1,3,4-Oxadiazol-2-Yl)Phenyl)Acetyl)Furan-2-Yl)Benzonitrile]",≤ 1000 nM
15,"CCc1nnc(-c2ccc(C(OC)C(=O)c3ccc(-c4cc(OC)c(Br)c(OC)c4)o3)cc2)o1 (centres unmarked) [Compound 18-1, 1-(5-(4-Bromo-3,5-Dimethoxyphenyl)Furan-2-Yl)-2-(4-(5-Ethyl-1,3,4-Oxadiazol-2-Yl)Phenyl)-2-Methoxyethanone]",≤ 1000 nM
16,"COc1cc(-c2ccc(C(=O)C(OC)c3ccc(N4CCCS4(=O)=O)cc3)o2)cc(OC)c1Br (centres unmarked) [Compound 19-1, 1-(5-(4-Bromo-3,5-Dimethoxyphenyl)Furan-2-Yl)-2-(4-(1,1-Dioxidoisothiazolidin-2-Yl)Phenyl)-2-Methoxyethanone]",≤ 1000 nM
17,"COc1cc(-c2ccc(C(=O)C(OC)c3cccc4ncccc34)o2)cc(OC)c1Br (centres unmarked) [Compound 20-1, 1-(5-(4-Bromo-3,5-Dimethoxyphenyl)Furan-2-Yl)-2-Methoxy-2-(Quinolin-5-Yl)Ethanone]",≤ 1000 nM
18,"COc1cc(-c2ccc(C(=O)C(OC)c3ccc(-c4nnc(C)o4)cc3)o2)cc(OC)c1C (centres unmarked) [Compound 21-1, 1-(5-(3,5-Dimethoxy-4-Methylphenyl)Furan-2-Yl)-2-Methoxy-2-(4-(5-Methyl-1,3,4-Oxadiazol-2-Yl)Phenyl)Ethanone]",≤ 1000 nM
19,"COc1cc(-c2ccc(C(=O)C(OC)c3ccc(-c4nnc(C5CC5)o4)cc3)o2)cc(OC)c1Br (centres unmarked) [Compound 22-1, 1-(5-(4-Bromo-3,5-Dimethoxyphenyl)Furan-2-Yl)-2-(4-(5-Cyclopropyl-1,3,4-Oxadiazol-2-Yl)Phenyl)-2-Methoxyethanone]",≤ 1000 nM
20,"COc1cc(-c2ccc(C(=O)C(OC)c3ccc(N4CCCCC4)nc3)o2)cc(OC)c1Br (centres unmarked) [Compound 23-1, 1-(5-(4-Bromo-3,5-Dimethoxyphenyl)Furan-2-Yl)-2-Methoxy-2-(6-(Piperidin-1-Yl)Pyridin-3-Yl)Ethanone]",≤ 1000 nM
21,"COc1cc(-c2ccc(C(=O)C(OC)c3ccc4c(c3)nnn4C)o2)cc(OC)c1Br (centres unmarked) [Compound 25-1, 1-(5-(4-Bromo-3,5-Dimethoxyphenyl)Furan-2-Yl)-2-Methoxy-2-(1-Methyl-1H-Benzo[D][1,2,3]Triazol-5-Yl)Ethanone]",≤ 1000 nM
22,"COc1cc(-c2ccc(C(=O)C(OC)c3ccc(CN4CCOCC4)cc3)o2)cc(OC)c1Br (centres unmarked) [Compound 26-1, 1-(5-(4-Bromo-3,5-Dimethoxyphenyl)Furan-2-Yl)-2-Methoxy-2-(4-(Morpholinomethyl)Phenyl)Ethanone]",≤ 1000 nM
23,"COc1cc(OC)cc(-c2ccc(C(=O)C(OC)c3ccc(N4CCOCC4)cc3)o2)c1 (centres unmarked) [Compound 27-1, 1-(5-(3,5-Dimethoxyphenyl)Furan-2-Yl)-2-Methoxy-2-(4-Morpholinophenyl)Ethanone]",≤ 1000 nM
24,"COc1cc(-c2ccc(C(=O)C(OC)c3ccc(N4CCOCC4)cc3)o2)cc(OC)c1OC(F)F (centres unmarked) [Compound 28-1, 1-(5-(4-(Difluoromethoxy)-3,5-Dimethoxyphenyl)Furan-2-Yl)-2-Methoxy-2-(4-Morpholinophenyl)Ethanone]",≤ 1000 nM
25,"CCOc1c(OC)cc(-c2ccc(C(=O)C(OC)c3ccc(N4CCOCC4)cc3)o2)cc1OC (centres unmarked) [Compound 29-1, 1-(5-(4-Ethoxy-3,5-Dimethoxyphenyl)Furan-2-Yl)-2-Methoxy-2-(4-Morpholinophenyl)Ethanone]",≤ 1000 nM
26,"COc1cc(-c2ccc(C(=O)C(OC)c3ccc(-n4nccn4)cc3)o2)cc(OC)c1Br (centres unmarked) [Compound 30-1, 2-(4-(2H-1,2,3-Triazol-2-Yl)Phenyl)-1-(5-(4-Bromo-3,5-Dimethoxyphenyl)Furan-2-Yl)-2-Methoxyethanone]",≤ 1000 nM
27,"COc1cc(-c2ccc(C(=O)C(OC)c3ccc(-n4ccnn4)cc3)o2)cc(OC)c1Br (centres unmarked) [Compound 31-1, 2-(4-(1H-1,2,3-Triazol-1-Yl)Phenyl)-1-(5-(4-Bromo-3,5-Dimethoxyphenyl)Furan-2-Yl)-2-Methoxyethanone]",≤ 1000 nM
28,"COc1cc(-c2ccc(C(=O)C(OC)c3ccc(-n4cncn4)cc3)o2)cc(OC)c1Br (centres unmarked) [Compound 32-1, 2-(4-(1H-1,2,4-Triazol-1-Yl)Phenyl)-1-(5-(4-Bromo-3,5-Dimethoxyphenyl)Furan-2-Yl)-2-Methoxyethanone]",≤ 1000 nM
29,"COc1cc(-c2ccc(C(=O)C(OC)c3ccc(-c4nnn(C)n4)cc3)o2)cc(OC)c1Br (centres unmarked) [Compound 33-1, 1-(5-(4-Bromo-3,5-Dimethoxyphenyl)Furan-2-Yl)-2-Methoxy-2-(4-(2-Methyl-2H-Tetrazol-5-Yl)Phenyl)Ethanone]",≤ 1000 nM
